{"source": "PubChem BioAssay AID2060898", "about": "(Molecular Pharmacology Branch, DTP, NCI, 2025)", "test_system": "616215-338-R-J1-PDC complex spheroid viability", "assay": "Anticancer human tumor 616215-338-R-J1-PDC patient-derived colon adenocarcinoma cell line growth inhibition [RAS]", "conditions": "for pIC50: curve of first compound; for viability, T/C: stronger effect = lower value", "how_it_was_run": "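Agents were tested in combination matrices in half-log decrements from a top concentration at or near clinical Cmax (10 microM if undetermined). Targets were multi-cell spheroids of tumour lines plus HUVEC and MSC stromal cells.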", "key": {"[1]": {"conditions": "second compound 0.0316 µM, first compound 0.0316 µM"}, "[2]": {"conditions": "second compound 0.0316 µM, first compound 0.1 µM"}, "[3]": {"conditions": "second compound 0.0316 µM, first compound 0.316 µM"}, "[4]": {"conditions": "second compound 0.0316 µM, first compound 1 µM"}, "[5]": {"conditions": "second compound 0.0316 µM, first compound 3.16 µM"}, "[6]": {"conditions": "second compound 0.0316 µM, first compound 10 µM"}, "[7]": {"conditions": "second compound 0.1 µM, first compound 0.0316 µM"}, "[8]": {"conditions": "second compound 0.1 µM, first compound 0.1 µM"}, "[9]": {"conditions": "second compound 0.1 µM, first compound 0.316 µM"}, "[10]": {"conditions": "second compound 0.1 µM, first compound 1 µM"}, "[11]": {"conditions": "second compound 0.1 µM, first compound 3.16 µM"}, "[12]": {"conditions": "second compound 0.1 µM, first compound 10 µM"}, "[13]": {"conditions": "second compound 0.316 µM, first compound 0.0316 µM"}, "[14]": {"conditions": "second compound 0.316 µM, first compound 0.1 µM"}, "[15]": {"conditions": "second compound 0.316 µM, first compound 0.316 µM"}, "[16]": {"conditions": "second compound 0.316 µM, first compound 1 µM"}, "[17]": {"conditions": "second compound 0.316 µM, first compound 3.16 µM"}, "[18]": {"conditions": "second compound 0.316 µM, first compound 10 µM"}, "[19]": {"conditions": "second compound 1 µM, first compound 0.0316 µM"}, "[20]": {"conditions": "second compound 1 µM, first compound 0.1 µM"}, "[21]": {"conditions": "second compound 1 µM, first compound 0.316 µM"}, "[22]": {"conditions": "second compound 1 µM, first compound 1 µM"}, "[23]": {"conditions": "second compound 1 µM, first compound 3.16 µM"}, "[24]": {"conditions": "second compound 1 µM, first compound 10 µM"}, "[25]": {"conditions": "second compound 3.16 µM, first compound 0.0316 µM"}, "[26]": {"conditions": "second compound 3.16 µM, first compound 0.1 µM"}, "[27]": {"conditions": "second compound 3.16 µM, first compound 0.316 µM"}, "[28]": {"conditions": "second compound 3.16 µM, first compound 1 µM"}, "[29]": {"conditions": "second compound 3.16 µM, first compound 3.16 µM"}, "[30]": {"conditions": "second compound 3.16 µM, first compound 10 µM"}, "[31]": {"conditions": "second compound 10 µM, first compound 0.0316 µM"}, "[32]": {"conditions": "second compound 10 µM, first compound 0.1 µM"}, "[33]": {"conditions": "second compound 10 µM, first compound 0.316 µM"}, "[34]": {"conditions": "second compound 10 µM, first compound 1 µM"}, "[35]": {"conditions": "second compound 10 µM, first compound 3.16 µM"}, "[36]": {"conditions": "second compound 10 µM, first compound 10 µM"}}, "note": "pIC50: −log10 of the molar value.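 Further: spheroids exposed to agents for seven days before viability readout.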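 Wherever viability, T/C is given: 100% = DMSO vehicle control viability.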"}
{"smiles": "Cc1nc(N2CCC3(CC2)COC(C)C3N)c(CO)nc1Sc1ccnc(N)c1Cl", "note": "(centres undefined) + C#Cc1c(F)ccc2cc(O)cc(-c3ncc4c(N5CC6CCC(C5)N6)nc(OCC56CCCN5CC(F)C6)nc4c3F)c12", "values": [{"measurement": "pIC50", "setting": "second compound 0.0316 µM", "result": "< 5.00"}, {"measurement": "pIC50", "setting": "second compound 0.1 µM", "result": "< 5.00"}, {"measurement": "pIC50", "setting": "second compound 0.316 µM", "result": 5.28}, {"measurement": "pIC50", "setting": "second compound 1 µM", "result": 6.27}, {"measurement": "pIC50", "setting": "second compound 3.16 µM", "result": 6.52}, {"measurement": "pIC50", "setting": "second compound 10 µM", "result": 6.74}, {"measurement": "viability, T/C", "setting": "[1]", "result": 99.5, "unit": "%"}, {"measurement": "viability, T/C", "setting": "[2]", "result": 108, "unit": "%"}, {"measurement": "viability, T/C", "setting": "[3]", "result": 116, "unit": "%"}, {"measurement": "viability, T/C", "setting": "[4]", "result": 95.2, "unit": "%"}, {"measurement": "viability, T/C", "setting": "[5]", "result": 88.5, "unit": "%"}, {"measurement": "viability, T/C", "setting": "[6]", "result": 67.8, "unit": "%"}, {"measurement": "viability, T/C", "setting": "[7]", "result": 101, "unit": "%"}, {"measurement": "viability, T/C", "setting": "[8]", "result": 113, "unit": "%"}, {"measurement": "viability, T/C", "setting": "[9]", "result": 104, "unit": "%"}, {"measurement": "viability, T/C", "setting": "[10]", "result": 79.6, "unit": "%"}, {"measurement": "viability, T/C", "setting": "[11]", "result": 68, "unit": "%"}, {"measurement": "viability, T/C", "setting": "[12]", "result": 63.1, "unit": "%"}, {"measurement": "viability, T/C", "setting": "[13]", "result": 113, "unit": "%"}, {"measurement": "viability, T/C", "setting": "[14]", "result": 116, "unit": "%"}, {"measurement": "viability, T/C", "setting": "[15]", "result": 98.3, "unit": "%"}, {"measurement": "viability, T/C", "setting": "[16]", "result": 75.3, "unit": "%"}, {"measurement": "viability, T/C", "setting": "[17]", "result": 57.7, "unit": "%"}, {"measurement": "viability, T/C", "setting": "[18]", "result": 42.1, "unit": "%"}, {"measurement": "viability, T/C", "setting": "[19]", "result": 98.2, "unit": "%"}, {"measurement": "viability, T/C", "setting": "[20]", "result": 97.2, "unit": "%"}, {"measurement": "viability, T/C", "setting": "[21]", "result": 52.7, "unit": "%"}, {"measurement": "viability, T/C", "setting": "[22]", "result": 48.5, "unit": "%"}, {"measurement": "viability, T/C", "setting": "[23]", "result": 48.2, "unit": "%"}, {"measurement": "viability, T/C", "setting": "[24]", "result": 43.7, "unit": "%"}, {"measurement": "viability, T/C", "setting": "[25]", "result": 88.8, "unit": "%"}, {"measurement": "viability, T/C", "setting": "[26]", "result": 67.9, "unit": "%"}, {"measurement": "viability, T/C", "setting": "[27]", "result": 49.2, "unit": "%"}, {"measurement": "viability, T/C", "setting": "[28]", "result": 49.9, "unit": "%"}, {"measurement": "viability, T/C", "setting": "[29]", "result": 41.2, "unit": "%"}, {"measurement": "viability, T/C", "setting": "[30]", "result": 54.1, "unit": "%"}, {"measurement": "viability, T/C", "setting": "[31]", "result": 52.2, "unit": "%"}, {"measurement": "viability, T/C", "setting": "[32]", "result": 61.4, "unit": "%"}, {"measurement": "viability, T/C", "setting": "[33]", "result": 43.8, "unit": "%"}, {"measurement": "viability, T/C", "setting": "[34]", "result": 37, "unit": "%"}, {"measurement": "viability, T/C", "setting": "[35]", "result": 34.6, "unit": "%"}, {"measurement": "viability, T/C", "setting": "[36]", "result": 33, "unit": "%"}]}
{"smiles": "NC1c2ccccc2OC12CCN(c1cnc3c(N4CCCc5ncccc54)n[nH]c3n1)CC2", "note": "(centres undefined) + C#Cc1c(F)ccc2cc(O)cc(-c3ncc4c(N5CC6CCC(C5)N6)nc(OCC56CCCN5CC(F)C6)nc4c3F)c12", "values": [{"measurement": "pIC50", "setting": "second compound 0.0316 µM", "result": 5.33}, {"measurement": "pIC50", "setting": "second compound 0.1 µM", "result": 5.33}, {"measurement": "pIC50", "setting": "second compound 0.316 µM", "result": 5.71}, {"measurement": "pIC50", "setting": "second compound 1 µM", "result": 6.70}, {"measurement": "pIC50", "setting": "second compound 3.16 µM", "result": 7.46}, {"measurement": "pIC50", "setting": "second compound 10 µM", "result": "> 7.50"}, {"measurement": "viability, T/C", "setting": "[1]", "result": 128, "unit": "%"}, {"measurement": "viability, T/C", "setting": "[2]", "result": 112, "unit": "%"}, {"measurement": "viability, T/C", "setting": "[3]", "result": 75.9, "unit": "%"}, {"measurement": "viability, T/C", "setting": "[4]", "result": 81.6, "unit": "%"}, {"measurement": "viability, T/C", "setting": "[5]", "result": 67.6, "unit": "%"}, {"measurement": "viability, T/C", "setting": "[6]", "result": 29.6, "unit": "%"}, {"measurement": "viability, T/C", "setting": "[7]", "result": 123, "unit": "%"}, {"measurement": "viability, T/C", "setting": "[8]", "result": 105, "unit": "%"}, {"measurement": "viability, T/C", "setting": "[9]", "result": 88.5, "unit": "%"}, {"measurement": "viability, T/C", "setting": "[10]", "result": 61.8, "unit": "%"}, {"measurement": "viability, T/C", "setting": "[11]", "result": 56.6, "unit": "%"}, {"measurement": "viability, T/C", "setting": "[12]", "result": 43.4, "unit": "%"}, {"measurement": "viability, T/C", "setting": "[13]", "result": 114, "unit": "%"}, {"measurement": "viability, T/C", "setting": "[14]", "result": 84.4, "unit": "%"}, {"measurement": "viability, T/C", "setting": "[15]", "result": 63.2, "unit": "%"}, {"measurement": "viability, T/C", "setting": "[16]", "result": 55.1, "unit": "%"}, {"measurement": "viability, T/C", "setting": "[17]", "result": 49.2, "unit": "%"}, {"measurement": "viability, T/C", "setting": "[18]", "result": 32.4, "unit": "%"}, {"measurement": "viability, T/C", "setting": "[19]", "result": 88.6, "unit": "%"}, {"measurement": "viability, T/C", "setting": "[20]", "result": 59.5, "unit": "%"}, {"measurement": "viability, T/C", "setting": "[21]", "result": 43, "unit": "%"}, {"measurement": "viability, T/C", "setting": "[22]", "result": 33.8, "unit": "%"}, {"measurement": "viability, T/C", "setting": "[23]", "result": 43, "unit": "%"}, {"measurement": "viability, T/C", "setting": "[24]", "result": 26.6, "unit": "%"}, {"measurement": "viability, T/C", "setting": "[25]", "result": 50.5, "unit": "%"}, {"measurement": "viability, T/C", "setting": "[26]", "result": 44.5, "unit": "%"}, {"measurement": "viability, T/C", "setting": "[27]", "result": 50.7, "unit": "%"}, {"measurement": "viability, T/C", "setting": "[28]", "result": 39, "unit": "%"}, {"measurement": "viability, T/C", "setting": "[29]", "result": 35.6, "unit": "%"}, {"measurement": "viability, T/C", "setting": "[30]", "result": 35.7, "unit": "%"}, {"measurement": "viability, T/C", "setting": "[31]", "result": 40, "unit": "%"}, {"measurement": "viability, T/C", "setting": "[32]", "result": 44.4, "unit": "%"}, {"measurement": "viability, T/C", "setting": "[33]", "result": 36.2, "unit": "%"}, {"measurement": "viability, T/C", "setting": "[34]", "result": 29.5, "unit": "%"}, {"measurement": "viability, T/C", "setting": "[35]", "result": 33.4, "unit": "%"}, {"measurement": "viability, T/C", "setting": "[36]", "result": 31.6, "unit": "%"}]}
